# Assay results published in ChEMBL document CHEMBL4270488, “Antibacterial Compounds from Marine Bacteria, 2010-2015” (J Nat Prod, 2017).
# *1 amine or outer side, *2 acyl side, *3 side chain or, on linkers, in order; H or OH if unused. Where a SMILES comes first, the peptide text is derived from it. Bridges are numbered along the chain shown (N, C = ends). Roman numbers before positions name the chains, in order. [ ]: non-standard residue; d: D form. Actinocin(1to9) = Cc1c2oc3c(C)ccc(C(=O)[*:2])c3nc-2c(C(=O)[*:1])c(N)c1=O; Pro(4-oxo) = O=C1CN[C@H](C(=O)O)C1; NMeV = CN[C@H](C(=O)O)C(C)C; Sar = CNCC(=O)O
# Assays:
# Haemophilus influenzae = experiment: Antibacterial activity against Haemophilus influenzae ATCC 49247 by broth microdilution assay; format: functional
# [1] = Inhibition of Staphylococcus aureus RNA polymerase
# Enterococcus faecalis [2] = experiment: Antibacterial activity against Enterococcus faecalis ATCC 19433 by broth microdilution assay; format: functional
# [3] = Inhibition of Escherichia coli RNA polymerase
# Escherichia coli [4] = experiment: Antibacterial activity against Escherichia coli D21f2tolC by broth microdilution assay; format: functional
# [5] = system: Yersinia pseudotuberculosis; experiment: Inhibition of type 3 secretion system protein secretion in Yersinia pseudotuberculosis at 30 ug/ml incubated for 2 hrs by SDS-PAGE and densitometric analysis
# [6] = Antibacterial activity Bacillus pumilus against by broth dilution assay; format: functional
# Pseudomonas aeruginosa [7] = experiment: Antibacterial activity against Pseudomonas aeruginosa by broth dilution assay; format: functional
# Bacillus subtilis [8] = experiment: Antibacterial activity against Bacillus subtilis CMCC63501; format: functional
# [9] = system: Mycobacterium tuberculosis; experiment: Antibacterial activity against Mycobacterium tuberculosis H37Rv ATCC 27294 incubated for 10 days by GFP based fluorescence assay; format: functional; conditions: H37Rv ATCC 27294, 240 h
# Enterococcus [10] = experiment: Antibacterial activity against Enterococcus VRE-CUS by CLSI method; format: functional
# Clostridioides difficile = experiment: Antibacterial activity against Clostridioides difficile BI/NAP1/O27 by agar dilution method; format: functional
# Escherichia coli [11] = experiment: Antibacterial activity against Escherichia coli by CLSI method; format: functional
# Staphylococcus aureus [12] = experiment: Antibacterial activity against methicillin-resistant Staphylococcus aureus by CLSI method; format: functional
# Pseudomonas aeruginosa [13] = experiment: Antibacterial activity against Pseudomonas aeruginosa ATCC 27853 by CLSI method; format: functional
# Moraxella catarrhalis [14] = experiment: Antibacterial activity against Moraxella catarrhalis ATCC 25238 by CLSI method; format: functional
# Enterococcus [15] = experiment: Antibacterial activity against Enterococcus VRE-WMC by CLSI method; format: functional
# Staphylococcus aureus [16] = experiment: Antibacterial activity against methicillin-resistant Staphylococcus aureus infected in CD1 mouse assessed as mouse survival rate at 10 mg/kg; format: functional
# Streptococcus pneumoniae = experiment: Antibacterial activity against Streptococcus pneumoniae ATCC 51916 by microplate assay; format: functional
# Moraxella catarrhalis [17] = experiment: Antibacterial activity against Moraxella catarrhalis; format: functional
# Bacillus anthracis = experiment: Antibacterial activity against Bacillus anthracis UM23C1-1 by microplate assay; format: functional
# Staphylococcus aureus [18] = experiment: Antibacterial activity against methicillin-sensitive Staphylococcus aureus; format: functional
# Staphylococcus aureus [19] = experiment: Antibacterial activity against Staphylococcus aureus ATCC 13709 by microplate assay; format: functional
# Enterococcus faecalis [20] = experiment: Antibacterial activity against Enterococcus faecalis ATCC 29212 by microplate assay; format: functional
# Bacillus subtilis [21] = experiment: Antibacterial activity against Bacillus subtilis incubated for 24 hrs by standard broth dilution assay; format: functional
# Escherichia coli [22] = experiment: Antibacterial activity against Escherichia coli incubated for 24 hrs by standard broth dilution assay; format: functional
# Staphylococcus aureus [23] = experiment: Antibacterial activity against Staphylococcus aureus incubated for 24 hrs by standard broth dilution assay; format: functional
# Pseudomonas aeruginosa [24] = experiment: Antibacterial activity against Pseudomonas aeruginosa incubated for 24 hrs by standard broth dilution assay; format: functional
# Staphylococcus aureus [25] = experiment: Antibacterial activity against methicillin-resistant Staphylococcus aureus ATCC 43300; format: functional
# Staphylococcus aureus [26] = experiment: Antibacterial activity against Staphylococcus aureus […]; format: functional
smiles,measurement,setting,value
CC[C@H](C)[C@H]1NC(=O)[C@@H](NC(=O)[C@H](C)[C@H](O)C(C)C)[C@@H](C)OC(=O)[C@H]2NC(=O)[C@@H](C(C)C)NC(=O)[C@@H](Cc3ccccc3)N(C)C(=O)[C@@H](NC1=O)c1ccc(cc1)O[C@H](C)[C@@](O)(CO)/C=C\C(=O)NCC(=O)O2,MIC,Haemophilus influenzae,12 µg/mL
same,IC50,[1],200 to 4000 nM
same,MIC,Enterococcus faecalis [2],12 µg/mL
same,IC50,[3],200 to 2000 nM
same,MIC,Escherichia coli [4],0.2 µg/mL
C/C=C(\C)[C@H](O)[C@H](C)/C=C(C)/C=C/C/C(C)=C/Cc1nc(OC)c(OC)c(O)c1C,inhibition,[5],65%
CN(C)[C@@H]1C(O)=C(C(N)=O)C(=O)[C@@]2(O)C(O)=C3C(=O)c4c(O)cccc4[C@@](C)(O)[C@H]3C[C@@H]12 [TETRACYCLINE],MIC,[6],40 to 80 µg/mL
same,MIC,Pseudomonas aeruginosa [7],40 to 80 µg/mL
CC1(C)S[C@@H]2[C@H](NC(=O)[C@H](N)c3ccccc3)C(=O)N2[C@H]1C(=O)O [AMPICILLIN],MIC,Bacillus subtilis [8],1.6 to 3.1 µg/mL
"Cc1c2oc3c(C)ccc(C(=O)N[C@@H]4C(=O)N[C@H](C(C)C)C(=O)N5CCC[C@H]5C(=O)N(C)CC(=O)N(C)[C@@H](C(C)C)C(=O)O[C@@H]4C)c3nc-2c(C(=O)N[C@@H]2C(=O)N[C@H](C(C)C)C(=O)N3CC(=O)C[C@H]3C(=O)N(C)CC(=O)N(C)[C@@H](C(C)C)C(=O)O[C@@H]2C)c(N)c1=O (I: T[dV][Pro(4-oxo)][Sar][NMeV] / II: T[dV]P[Sar][NMeV]; ester I:1-I:C, II:1-II:C; linker I:N-II:N via Actinocin(1to9))",MIC,[9],1 to 8 µg/mL
C=C(NC(=O)c1csc(-c2nc3c(cc2O)-c2nc(cs2)C(=O)N[C@@H]([C@@H](C)O)C(=O)N/C(=C/C)c2nc(cs2)C(=O)N[C@H]2C[C@H](O)C(=O)OCc4cccc5[nH]c(c(C)c45)C(=O)SC[C@H](NC(=O)c4csc2n4)c2nc-3cs2)n1)C(N)=O,MIC,Enterococcus [10],0.12 µg/mL
same,MIC,Clostridioides difficile,0.01 µg/mL
same,MIC,Escherichia coli [11],> 4 µg/mL
same,MIC,Staphylococcus aureus [12],0.03 to 0.25 µg/mL
same,MIC,Pseudomonas aeruginosa [13],> 4 µg/mL
same,MIC,Moraxella catarrhalis [14],0.5 µg/mL
same,MIC,Enterococcus [15],0.12 µg/mL
C/C=C(\C)[C@H](C)[C@H](C)/C=C(C)/C=C/C/C(C)=C/Cc1cc(O)cc(OC)n1,inhibition,[5],45%
Cc1c2oc3c(C)ccc(C(=O)N[C@@H]4C(=O)N[C@H](C(C)C)C(=O)N5CCC[C@H]5C(=O)N(C)CC(=O)N(C)[C@@H](C(C)C)C(=O)O[C@@H]4C)c3nc-2c(C(=O)N[C@@H]2C(=O)N[C@H](C(C)C)C(=O)N3CC(O)C[C@H]3C(=O)N(C)CC(=O)N(C)[C@@H](C(C)C)C(=O)O[C@@H]2C)c(N)c1=O (stereo not given in full),MIC,[9],1 to 8 µg/mL
CC1=CC[C@@H]2[C@H]3/C(O)=C/C(=O)[C@@H](C)C(=O)O[C@H](C)/C=C/C=C\[C@@H](C)[C@H]3C=C[C@H]2C1,survival at 10 mg/kg,Staphylococcus aureus [16],90%
same,MIC,Streptococcus pneumoniae,0.06 to 0.25 µg/mL
same,MIC,Moraxella catarrhalis [17],4 µg/mL
same,MIC,Bacillus anthracis,0.03 µg/mL
same,MIC,Staphylococcus aureus [18],≤ 0.25 µg/mL
same,MIC,Staphylococcus aureus [19],0.06 to 0.25 µg/mL
same,MIC,Enterococcus faecalis [20],0.06 to 0.25 µg/mL
CCCCCCCCCCCC(=O)N(CCO)CCO,MIC,Bacillus subtilis [21],0.02 to 0.13 µg/mL
same,MIC,Escherichia coli [22],0.02 to 0.13 µg/mL
same,MIC,Staphylococcus aureus [23],0.02 to 0.13 µg/mL
same,MIC,Pseudomonas aeruginosa [24],0.02 to 0.13 µg/mL
C[C@@H]1CCC/C=C/[C@@H]2O[C@@H](C/C=C\C=C\[C@H](O[C@@H]3O[C@H](CO)[C@@H](O)[C@H](O)[C@H]3O)C/C=C/C=C\C(=O)O1)C[C@@H](O)[C@H]2O,MIC,Bacillus subtilis [21],0.02 to 0.13 µg/mL
same,MIC,Escherichia coli [22],0.02 to 0.13 µg/mL
same,MIC,Staphylococcus aureus [23],0.02 to 0.13 µg/mL
same,MIC,Pseudomonas aeruginosa [24],0.02 to 0.13 µg/mL
C[C@@H]1CCC/C=C/[C@@H]2O[C@H](C[C@@H](O)C/C=C\C=C\[C@H](O[C@@H]3O[C@H](CO)[C@@H](O)[C@H](O)[C@H]3O)C/C=C/C=C\C(=O)O1)[C@H]2O,MIC,Bacillus subtilis [21],0.02 to 0.13 µg/mL
same,MIC,Escherichia coli [22],0.02 to 0.13 µg/mL
same,MIC,Staphylococcus aureus [23],0.02 to 0.13 µg/mL
same,MIC,Pseudomonas aeruginosa [24],0.02 to 0.13 µg/mL
CCCC1(O)CC(=O)c2c(Cc3cc(=O)cc(O)o3)cccc2O1 (stereo not given),MIC,Staphylococcus aureus [25],2 µg/mL
same,MIC,Staphylococcus aureus [26],16 µg/mL
